The record followed here is US20250236616A1, “IMMUNOMODULATING AZALIDES” (Zoetis Services LLC, priority 2021, published 2025).

For one experiment, the system named is M. haemolytica. Kind of experiment: MIC, M. haemolytica strains. To be noted: Mannheimia haemolytica. Type of experiment: cell-based. The source says: (§1) Primary screening of the compounds of the invention included the evaluation of antibacterial activity of analogs through determination of microbial inhibition concentration (MIC) as per CLSI guidelines. The screening panel included the relevant BRD pathogens: 1) M. haemolytica (e.g., 12726, 46571 and 49023, all AHDRCC; and 33396 (ATCC)); and 2) P. multocida (e.g., 34135 and 46572 (both AHDRCC) and 43137 (ATCC)). In some instances, H. somni (A700025K) pathogens were also included in the screening panel. The AHDRCC strains originated from the Zoetis BRD/SRD surveillance program and refer to the Animal Health Development and Research Culture Collection. In addition, the screen assessed S. aureus (29213 ATCC) as a representative Gram-positive isolate, E.faecalis (19433 ATCC) as a commensal gram-positive gastrointestinal bacterium and E. coli (100, 3110 and 25922 (ATCC)) for the evaluation of efflux potential. The screening panel BRD pathogens were assessed in determining antibacterial activity of the Formula (1) compounds.
(§2) All relevant BRD pathogens were initially screened at a top concentration of 64 μg/mL of a Formula (1) compound in an eleven-point dilution series. […] If an Example was purified further, the MICs moved […] essentially two dilutions across all strains tested in the screening panel.
(§3) In-Vitro MIC Model Compounds were analyzed for antibacterial activity against a panel of animal health specific gram-positive and gram-negative clinical strains by diluting compounds in DMSO to an appropriate stock concentration to determine the Minimal Inhibitory Concentration (MIC) via a semi-automated broth micro-dilution method (CLSI reference method) with QC strains and anti-microbial agent(s). Specifically, bacteria were grown overnight on TSA w/5% sheep blood agar plates and diluted in saline buffer to a McFarland Standard 0.5, then further diluted in cation-ion adjusted Mueller Hinton Broth to a final concentration of approximately 5×10^5 CFU/mL. 100 μL of inoculated media was added to 96-well plate(s) with 3 μL of serially diluted compound in each row. Depending on strain (see CLSI reference method), bacteria were incubated 18-22 hours at 35-37° C. in ambient air, with 5% CO2 or anaerobically (up to 48 hours).

For another experiment, the system named is P. multocida. Briefly: MIC, P. multocida strains. It counts as cell-based. To be noted: Pasteurella multocida.
Excerpt: as §1, §2, §3

A further experiment relates to S. aureus. Kind of experiment: MIC, S. aureus. Type of experiment: cell-based. To be noted: Staphylococcus aureus; S. aureus 29213.
Excerpt: as §1, §2, §3

The next experiment has as its system E. coli. Briefly: MIC, E. coli. It counts as cell-based. The conditions noted are these: Escherichia coli.
Excerpt: as §1, §2, §3

A further experiment has as its system P. multocida 46572. Kind of experiment: In vivo mouse lung infection challenge model (murine efficacy), survival. More on the design: species or system CD-1 female mice. To be noted: 20 mg/kg subcutaneous; for % Survival: P. multocida 46572 intranasal challenge, harmonized relative to vehicle (−) and M9 (+) controls. The protocol: The challenge organism was P. multocida 46572. Target challenge concentration was 5×10^2 CFU/mouse. Isolated colonies from overnight growth (37° C. with 5% CO2) on trypticase soy agar (TSA II) blood plates were transferred to room temperature Brain Heart Infusion Broth (BHIB). The broth culture was incubated 3.5-4 hours to approximately mid-log phase of growth, as measured by forward light scatter at 600 nm (OD600, 0.200). The culture was centrifuged to collect the bacterial pellet. The pellet was re-suspended in BHIB and adjusted to provide an approximate concentration of 2.7 log 10 colony forming units (CFU) in 0.04 mL at the highest concentration. The challenge inoculum concentration was confirmed by serial dilutions of the inoculum for CFU enumeration. On Day −5, CD −1 female mice were received. Mice were given standard rodent diet and water ad libitum. On Day 0, bacterial inoculum (0.04 mL) was administered to each mouse (n=36) intranasally. Compounds of the invention were dosed at 20 mg/kg (0.1 mL) in a buffered (˜pH 5.4) propylene glycol, monothioglycerol and water solution by subcutaneous injection. Animals were observed from Days 1-10. The study was terminated on Day 10. In addition, some treatment groups were sampled at 6, 24, and 48 hours post bacterial challenge for RNA sequence analysis of lung tissue.
The murine efficacy model (P.multocida challenge) was optimized, and the treatment group size was powered to be able to observe statistically significant improvement of survival to expected ranges for immunomodulatory compounds. The experimental design was a randomized complete block design. Mice were individually identified and treatment groups comingled within a cage, with every treatment group equally represented across cages. Mortality was the primary variable. Mortality data was analyzed using a generalized mixed model with fixed effect of treatment and random effect of block. Survival time was also analyzed using the SAS PHREG (survival analysis) procedure to examine whether there were significant differences between treatment groups and the control group. Numerous compounds of the invention and M9 (positive control) were tested in this model at a dose of 20 mg/kg (Table 3). Typical percent survival for no treatment control is in the range of 0-20% based on study to study variation in challenge inoculum and rate of infection. […] Mouse survival for M9 was about 90-100%, further supporting its residual antibacterial properties against the bacterial strain.

Another experiment deals with IL-6. Briefly: Whole bovine blood assay, LPS-induced IL-6. It counts as cell-based. To be noted: Bos taurus, fresh whole bovine blood, LPS stimulant; top drug concentration 250 μM.
The mark [1] stands for this setting: M. haemolytica 46571, bovine efficacy challenge strain.
Where [2] appears, read: P. multocida 46572, murine efficacy challenge strain.

pIC50: −log10 of the molar value. In brackets after ≈: the same amount, converted by molar mass. Some results are limits rather than exact numbers.

The term MIC denotes the lowest concentration that inhibits growth of the organism. The low end stands for inhibition by little substance, the high end for a need for much substance. Usually pIC50 stands for the negative decadic logarithm of the IC50, by convention in mol/L. A high value points to a low IC50. `CC[C@H]1OC(=O)[C@H](C)[C@@H](O)[C@H](C)[C@@H](O[C@@H]2O[C@H](C)C[C@H](N(C)S(=O)(=O)c3ccccc3)[C@H]2Oc2ccc(OC)cc2)[C@](C)(O)C[C@@H](C)CN[C@H](C)[C@@H](O)[C@]1(C)O` [Example A-9, N-((2S,3R,4S,6R)-2-(((2R,3S,4R,5R,8R,10R,11R,12S,13S,14R)-2-ethyl-3,4,10,13-tetrahydroxy-3,5,8,10, 12, 14-hexamethyl-15-oxo-1-oxa-6-azacyclopentadecan-11-yl)oxy)-3-(4-methoxyphenoxy)-6-methyltetrahydro-2H-pyran-4-yl)-N-methylbenzenesulfonamide]: the minimal inhibitory concentration (MIC) against M. haemolytica (M. haemolytica 12726), against M. haemolytica (M. haemolytica 33396), in the experiment with M. haemolytica (setting [1]), against P. multocida (P. multocida 43137), against P. multocida (setting [2]) and in the experiment with S. aureus was greater than 64 µg/mL in each case. Also, the MIC with E. coli (E. coli 25922) and against E. coli (E. coli W3110) was greater than 64 µg/mL in each case. Besides, in the experiment with P. multocida 46572, the “% Survival” value was 41%. The compound further gave a negative logarithm of the IC50 (pIC50) in the experiment with IL-6 of 4.68.

Turning to `CCCNC[C@]1(O)[C@H](C)O[C@@H](O[C@H]2[C@H](C)[C@@H](O[C@@H]3O[C@H](C)C[C@H](N(C)S(=O)(=O)c4ccc(C)cc4)[C@H]3O)[C@](C)(O)C[C@@H](C)CN[C@H](C)[C@@H](O)[C@](C)(O)[C@@H](CC)OC(=O)[C@@H]2C)C[C@@]1(C)OC` [Example B-26, N-((2S,3R,4S,6R)-2-(((2R,3S,4R,5R,8R,10R,11R,12S,13S,14R)-2-ethyl-3,4,10-trihydroxy-13-(((2R,4R,5S,6S)-5-hydroxy-4-methoxy-4,6-dimethyl-5-((propylamino)methyl)tetrahydro-2H-pyran-2-yl)oxy)-3,5,8,10,12,14-hexamethyl-15-oxo-1-oxa-6-azacyclopentadecan-11-yl)oxy)-3-hydroxy-6-methyltetrahydro-2H-pyran-4-yl)-N,4-dimethylbenzenesulfonamide], the minimal inhibitory concentration (MIC) in the experiment with M. haemolytica (M. haemolytica 12726), in the experiment on M. haemolytica (M. haemolytica 33396), against M. haemolytica (setting [1]), in the experiment on P. multocida (P. multocida 43137), against P. multocida (setting [2]) and with S. aureus was greater than 64 µg/mL throughout. Further, the MIC against E. coli (E. coli 25922) and in the experiment with E. coli (E. coli W3110) was greater than 64 µg/mL each time. The “% Survival” value with P. multocida 46572 was determined as 37%.

Turning to `CCCNC[C@]1(O)[C@H](C)O[C@@H](O[C@H]2[C@H](C)[C@@H](O[C@@H]3O[C@H](C)C[C@H](N(C)S(=O)(=O)Nc4ccc(C(F)(F)F)cc4)[C@H]3O)[C@](C)(O)C[C@@H](C)CN[C@H](C)[C@@H](O)[C@](C)(O)[C@@H](CC)OC(=O)[C@@H]2C)C[C@@]1(C)OC` [Example B-50, (2R,3S,4R,5R,8R,10R,11R,12S,13S, 14R)-2-ethyl-3,4,10-trihydroxy-13-[(2R,4R,5S,6S)-5-hydroxy-4-methoxy-4,6-dimethyl-5-(propylaminomethyl)oxan-2-yl]oxy-11-[(2S,3R,4S,6R)-3-hydroxy-6-methyl-4-[methyl-[[4-(trifluoromethyl)phenyl]sulfamoyl]amino]oxan-2-yl]oxy-3,5,8, 10, 12, 14-hexamethyl-15-oxo-1-oxa-6-azacyclopentadecane], the MIC against M. haemolytica (M. haemolytica 12726), in the experiment on M. haemolytica (M. haemolytica 33396), with M. haemolytica (setting [1]), in the experiment on P. multocida (P. multocida 43137), in the experiment with P. multocida (setting [2]) and in the experiment on S. aureus was greater than 64 µg/mL in each case. The MIC against E. coli (E. coli 25922) and against E. coli (E. coli W3110) was greater than 64 µg/mL in each case. In the experiment on P. multocida 46572, the “% Survival” value is reported as 88%. In the experiment on IL-6, this compound gave a pIC50 of 4.31.

Consider `CC[C@H]1OC(=O)[C@H](C)[C@@H](O[C@H]2C[C@@](C)(OC)[C@](O)(CN3CCCCC3)[C@H](C)O2)[C@H](C)[C@@H](O[C@@H]2O[C@H](C)C[C@H](N(C)S(=O)(=O)c3ccc(Cl)cc3)[C@H]2O)[C@](C)(O)C[C@@H](C)CN[C@H](C)[C@@H](O)[C@]1(C)O` [Example C-4, 4-chloro-N-((2S,3R,4S,6R)-2-(((2R,3S,4R,5R,8R,10R,11R,12S,13S,14R)-2-ethyl-3,4,10-trihydroxy-13-(((2R,4R,5S,6S)-5-hydroxy-4-methoxy-4,6-dimethyl-5-(piperidin-1-ylmethyl)tetrahydro-2H-pyran-2-yl)oxy)-3,5,8, 10, 12, 14-hexamethyl-15-oxo-1-oxa-6-azacyclopentadecan-11-yl)oxy)-3-hydroxy-6-methyltetrahydro-2H-pyran-4-yl)-N-methylbenzenesulfonamide], for which the MIC against M. haemolytica (M. haemolytica 12726), against M. haemolytica (M. haemolytica 33396), against M. haemolytica (setting [1]), in the experiment on P. multocida (P. multocida 43137), against P. multocida (setting [2]) and against S. aureus was greater than 128 µg/mL each time. In addition, the minimum inhibitory concentration (MIC) in the experiment with E. coli (E. coli 25922) and with E. coli (E. coli W3110) was greater than 128 µg/mL in each case. For the same compound, the “% Survival” value in the experiment with P. multocida 46572 stood at 76%.

For `CCCNC[C@]1(O)[C@H](C)O[C@@H](O[C@H]2[C@H](C)[C@@H](O[C@@H]3O[C@H](C)C[C@H](NC)[C@H]3O)[C@](C)(O)C[C@@H](C)CN[C@H](C)[C@@H](O)[C@](C)(O)[C@@H](CC)OC(=O)[C@@H]2C)C[C@@]1(C)OC` [Example M9, (2R,3S,4R,5R,8R,10R,11R,12S,13S,14R)-2-ethyl-3,4, 10-trihydroxy-13-(((2R,4R,5S,6S)-5-hydroxy-4-methoxy-4,6-dimethyl-5-((propylamino)methyl)-tetrahydro-2H-pyran-2-yl)oxy)-11-(((2S,3R,4S,6R)-3-hydroxy-6-methyl-4-(methylamino)tetrahydro-2H-pyran-2-yl)oxy)-3,5,8,10,12,14-hexamethyl-1-oxa-6-azacyclopentadecan-15-one], the MIC was 22 µg/mL (≈ 27.8 µM) with M. haemolytica (M. haemolytica 12726), greater than 64 µg/mL in the experiment on E. coli (E. coli 25922) and 64 µg/mL (≈ 80.8 µM) in the experiment on E. coli (E. coli W3110). Also, the Mouse survival in the experiment on P. multocida 46572 (M9 positive control) is 90-100%.
